From US7128926B2, “Ester compound and use thereof” (Incorporated Administrative Agency, National Agriculture …, priority 2002, dated 2006)

System: adult males of Pseudococcus cryptus
Experiment: Biological assay of attracting activity using Petri dish (Table 1)
Format: in vivo
Experimental: Biological Assay of Attracting Activity Using Petri Dish […] First, two square filter papers with an area of 1 cm^2 were placed on a Petri dish with a diameter of 90 mm. Thereafter, one paper was impregnated with each of sample solutions (shown in Tables 1 and 2) (100 μl of a stock solution in the case of each fraction shown in Table 1 and a crude extract shown in Table 2, and 10 μl of a stock solution in the case of an acetylated product shown in Table 2), and it was defined as a treated group. The other paper was impregnated with only a solvent (100 μl), and it was defined as a control group. […] The Petri dish was then capped. Approximately 10 to 60 minutes later, when the movement of the males stopped, the presence or absence of attracting activity was confirmed from the ratio of males attracted to each filter paper.

C=C(C)CC(=O)OCC1CC(C(=C)C)C1(C)C (stereo not shown) [formula (I), 3-isopropenyl-2,2-dimethylcyclobutylmethyl 3-methyl-3-butenoate]
attracting activity towards adult males of Pseudococcus cryptus (in words): activity of attracting adult males of Pseudococcus cryptus
